Laboratory results: paper PMC5690597, “Suppression and resolution of autoimmune arthritis by rhesus θ-defensin-1, an immunomodulatory macrocyclic peptide” (PLoS ONE, 2017)
Bridge positions count the residues as written; N and C are the ends. Peptide text beside a SMILES is read from it.

Assays:
MMP-8 = MMP-8 (Homo sapiens, UniProt P22894); experiment: biochemical
Experimental: (§1) Inhibition of MMPs by RTD-1 was performed as described, incubating each enzyme with 0–100 μg/ml of RTD-1. IC50 values were calculated by GraphPad Prism 5.01 (GraphPad Software, San Diego, CA) utilizing a non-linear curve fit of log [inhibitor] versus response with variable slope.

MMP-14 = MMP-14 (Homo sapiens, UniProt P50281); experiment: biochemical
Experimental: as §1

MMP-2 = MMP-2 (Homo sapiens, UniProt P08253); experiment: biochemical
Sequence of MMP-2 (P08253 110-660, species assumed): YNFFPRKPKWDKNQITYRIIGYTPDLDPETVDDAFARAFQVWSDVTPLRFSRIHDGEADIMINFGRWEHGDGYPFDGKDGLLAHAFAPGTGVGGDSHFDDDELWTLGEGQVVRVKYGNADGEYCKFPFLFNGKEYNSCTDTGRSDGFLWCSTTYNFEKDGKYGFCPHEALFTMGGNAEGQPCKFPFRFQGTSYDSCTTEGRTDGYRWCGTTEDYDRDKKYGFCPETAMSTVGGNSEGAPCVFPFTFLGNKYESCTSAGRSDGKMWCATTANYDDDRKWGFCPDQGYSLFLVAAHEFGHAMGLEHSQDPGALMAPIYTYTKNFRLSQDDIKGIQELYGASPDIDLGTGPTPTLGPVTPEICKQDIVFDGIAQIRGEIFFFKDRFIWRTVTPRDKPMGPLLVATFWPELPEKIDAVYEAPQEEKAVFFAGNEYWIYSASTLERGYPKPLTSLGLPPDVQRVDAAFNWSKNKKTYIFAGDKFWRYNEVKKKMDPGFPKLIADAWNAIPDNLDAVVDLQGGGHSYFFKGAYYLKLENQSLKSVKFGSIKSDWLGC
Experimental: as §1

MMP-3 = MMP-3 (Homo sapiens, UniProt P08254); experiment: biochemical
Sequence of MMP-3 (P08254 100-477, species assumed): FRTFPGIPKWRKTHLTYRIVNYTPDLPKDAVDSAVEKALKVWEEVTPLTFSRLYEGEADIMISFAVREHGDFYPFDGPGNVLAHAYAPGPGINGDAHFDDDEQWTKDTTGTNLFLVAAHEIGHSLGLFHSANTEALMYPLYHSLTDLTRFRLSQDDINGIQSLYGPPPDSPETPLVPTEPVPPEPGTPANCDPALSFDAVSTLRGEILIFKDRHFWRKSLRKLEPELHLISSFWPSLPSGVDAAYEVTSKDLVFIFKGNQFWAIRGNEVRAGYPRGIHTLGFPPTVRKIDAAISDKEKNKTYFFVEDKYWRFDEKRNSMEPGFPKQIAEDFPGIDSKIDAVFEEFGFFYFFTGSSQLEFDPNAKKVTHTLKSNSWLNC
Experimental: as §1

MMP-9 = MMP-9 (Homo sapiens, UniProt P14780); experiment: biochemical
Sequence of MMP-9 (P14780 94-707, species assumed): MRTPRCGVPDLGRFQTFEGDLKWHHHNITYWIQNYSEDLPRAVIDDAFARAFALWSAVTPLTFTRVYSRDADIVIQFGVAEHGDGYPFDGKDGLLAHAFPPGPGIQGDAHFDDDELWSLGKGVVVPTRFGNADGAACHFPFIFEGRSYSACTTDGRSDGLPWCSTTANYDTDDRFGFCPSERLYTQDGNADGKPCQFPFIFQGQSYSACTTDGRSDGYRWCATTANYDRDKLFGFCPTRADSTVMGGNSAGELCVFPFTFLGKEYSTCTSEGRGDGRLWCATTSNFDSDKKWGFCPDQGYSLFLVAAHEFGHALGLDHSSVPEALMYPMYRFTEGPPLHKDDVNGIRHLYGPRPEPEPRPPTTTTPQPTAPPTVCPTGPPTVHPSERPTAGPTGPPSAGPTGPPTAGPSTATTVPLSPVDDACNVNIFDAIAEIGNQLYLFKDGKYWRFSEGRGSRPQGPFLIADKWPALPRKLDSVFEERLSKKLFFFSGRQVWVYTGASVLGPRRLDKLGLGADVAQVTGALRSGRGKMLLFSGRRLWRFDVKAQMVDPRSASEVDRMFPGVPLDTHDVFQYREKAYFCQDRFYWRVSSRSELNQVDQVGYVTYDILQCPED
Experimental: as §1

Cathepsin V = Cathepsin V (Homo sapiens, UniProt O60911); experiment: biochemical
Sequence of Cathepsin V (O60911 114-334): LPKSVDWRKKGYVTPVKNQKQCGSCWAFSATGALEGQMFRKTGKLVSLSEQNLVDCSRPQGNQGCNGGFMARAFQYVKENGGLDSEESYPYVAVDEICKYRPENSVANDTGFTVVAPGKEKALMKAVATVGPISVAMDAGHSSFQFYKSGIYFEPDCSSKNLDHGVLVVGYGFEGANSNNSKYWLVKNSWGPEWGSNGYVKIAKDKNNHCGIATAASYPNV
Experimental: (§2) RTD-1 inhibition of Cat B (BPS Bioscience, San Diego, CA) and Cats C, H, K, L, S, and V (R & D Systems) was analyzed in a 96 well format with enzyme-specific substrates per manufacturer’s instructions and as described in Table 1. The activity of each enzyme was determined in the presence of 0 to 50 μg/ml RTD-1.
as §1

Cathepsin S = Cathepsin S (Homo sapiens, UniProt P25774); experiment: biochemical
Sequence of Cathepsin S (P25774 115-331, species assumed): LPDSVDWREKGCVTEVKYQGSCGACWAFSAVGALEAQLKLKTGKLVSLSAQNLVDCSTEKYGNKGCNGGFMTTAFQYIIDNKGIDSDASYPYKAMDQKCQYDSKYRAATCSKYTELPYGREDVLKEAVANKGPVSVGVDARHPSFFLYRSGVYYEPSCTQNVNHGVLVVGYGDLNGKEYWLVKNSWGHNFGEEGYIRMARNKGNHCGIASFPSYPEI
Experimental: as §2, §1

Cathepsin K = Cathepsin K (Homo sapiens, UniProt P43235); experiment: biochemical
Sequence of Cathepsin K (P43235 115-329, species assumed): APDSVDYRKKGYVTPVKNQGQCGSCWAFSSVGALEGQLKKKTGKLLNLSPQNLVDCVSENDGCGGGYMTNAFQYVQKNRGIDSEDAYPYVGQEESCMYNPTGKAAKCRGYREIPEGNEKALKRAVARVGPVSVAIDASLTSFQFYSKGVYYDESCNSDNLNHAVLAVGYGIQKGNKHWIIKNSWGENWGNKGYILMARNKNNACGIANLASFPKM
Experimental: as §2, §1

Cathepsin C = Cathepsin C (Homo sapiens, UniProt P53634); experiment: biochemical
Sequence of Cathepsin C (P53634 25-463, species assumed): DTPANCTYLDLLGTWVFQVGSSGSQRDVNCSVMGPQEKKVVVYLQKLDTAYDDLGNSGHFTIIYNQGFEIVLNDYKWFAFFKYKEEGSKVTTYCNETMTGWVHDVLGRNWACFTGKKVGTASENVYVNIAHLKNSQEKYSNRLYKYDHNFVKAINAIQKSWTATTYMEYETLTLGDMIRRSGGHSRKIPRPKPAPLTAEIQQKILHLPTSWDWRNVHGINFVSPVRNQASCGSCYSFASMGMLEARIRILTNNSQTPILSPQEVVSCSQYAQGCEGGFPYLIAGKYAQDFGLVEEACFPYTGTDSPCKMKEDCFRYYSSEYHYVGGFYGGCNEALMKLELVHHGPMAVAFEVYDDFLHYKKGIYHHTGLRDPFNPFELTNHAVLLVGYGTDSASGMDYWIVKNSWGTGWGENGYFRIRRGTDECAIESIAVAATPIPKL
Experimental: as §2, §1

Cathepsin L = Cathepsin L (Homo sapiens, UniProt P07711); experiment: biochemical
Sequence of Cathepsin L (P07711 114-333, species assumed): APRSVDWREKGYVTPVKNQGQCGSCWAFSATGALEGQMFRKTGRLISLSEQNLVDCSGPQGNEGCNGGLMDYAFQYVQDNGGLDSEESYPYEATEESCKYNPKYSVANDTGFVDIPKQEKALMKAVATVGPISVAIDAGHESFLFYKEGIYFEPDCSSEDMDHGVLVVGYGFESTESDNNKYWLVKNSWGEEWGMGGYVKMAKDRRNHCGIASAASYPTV
Experimental: as §2, §1

Cathepsin H = Cathepsin H (Homo sapiens, UniProt P09668); experiment: biochemical
Sequence of Cathepsin H (P09668 98-335, species assumed): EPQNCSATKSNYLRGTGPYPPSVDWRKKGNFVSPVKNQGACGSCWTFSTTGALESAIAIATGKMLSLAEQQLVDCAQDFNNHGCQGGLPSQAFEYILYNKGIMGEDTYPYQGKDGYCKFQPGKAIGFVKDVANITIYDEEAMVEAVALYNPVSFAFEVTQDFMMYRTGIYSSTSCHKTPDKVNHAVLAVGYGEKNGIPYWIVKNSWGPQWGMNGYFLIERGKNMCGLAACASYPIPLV
Experimental: as §2, §1

Cathepsin B = Cathepsin B (Homo sapiens, UniProt P07858); experiment: biochemical
Experimental: as §2, §1

joint IL-1β = experiment: Joint tissue cytokine analysis (IL-1β ELISA); format: in vivo, rat; conditions: 5 mg/kg s.c. once a day for four days, PIA rats AS ≥ 3; ELISA of joint extract; P = 0.0054
Experimental: Saline (control) and RTD-1 (5 mg/kg, s.c., qd) treated PIA rats were euthanized 4 days after disease onset (AS ≥ 3). The ankle joints and feet were snap frozen in liquid N2 and pulverized with mortar and pestle as described. One gram of tissue powder was extracted with 5 ml of ice cold 10 mM sodium phosphate, 150 mM NaCl, pH 7.4 (PBS) containing protease inhibitor tablets (cOmplete ULTRA with EDTA; Roche Diagnostics GmbH, Mannheim, Germany). Samples were vortexed for 30 seconds and extracts clarified by centrifugation. Supernatant IL-1β was quantified by ELISA (Life Technologies, Grand Island, NY).

[1] = administered subcutaneously; this study and ref 9
FLS = conditions: RTD-1 0–30 μg/ml; all samples; LDH release
Experimental: FLS were seeded at 3 × 10^3 cells/well in a 96-well TC treated plate (Greiner). Cells were allowed to adhere for 18 h and medium was replaced prior to addition of peptide or vehicle. RTD-1 was added to wells at final concentrations of 0–30 μg/ml in culture medium and incubated for 0, 24, or 48 h at 37°C in 5% CO2. FLS cell number was determined by DNA staining using CyQuant Cell Proliferation Assay Kit (Invitrogen) per manufacturer’s instructions. Cellular toxicity was determined by measuring the release of lactate dehydrogenase (LDH) using a CytoTox 96 Cytotoxicity Assay (Promega Bio Sciences, San Luis Obispo, CA) in FLS supernatants. All assays were performed with ≥ 7 replicates.

ADAM10 = ADAM10 (Homo sapiens, UniProt O14672); experiment: biochemical
Sequence of ADAM10 (O14672 214-748, species assumed): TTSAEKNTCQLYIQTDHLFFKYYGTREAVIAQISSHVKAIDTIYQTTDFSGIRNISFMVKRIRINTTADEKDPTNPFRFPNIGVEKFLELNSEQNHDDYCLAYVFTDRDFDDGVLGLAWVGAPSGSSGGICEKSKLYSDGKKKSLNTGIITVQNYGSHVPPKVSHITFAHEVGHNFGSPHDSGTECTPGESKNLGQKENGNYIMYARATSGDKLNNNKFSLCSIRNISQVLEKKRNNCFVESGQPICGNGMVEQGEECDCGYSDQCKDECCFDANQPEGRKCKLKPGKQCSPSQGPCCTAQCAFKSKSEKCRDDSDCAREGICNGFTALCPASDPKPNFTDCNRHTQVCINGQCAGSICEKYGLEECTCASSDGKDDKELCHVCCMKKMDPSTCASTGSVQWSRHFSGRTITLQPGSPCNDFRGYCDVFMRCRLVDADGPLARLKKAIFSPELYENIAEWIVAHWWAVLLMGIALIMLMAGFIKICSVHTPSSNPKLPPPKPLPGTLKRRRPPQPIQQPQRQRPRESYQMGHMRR
Experimental: (§3) RTD-1 was analyzed for enzymatic inhibition against zinc metalloproteases ADAM17, ADAM10, matrix metalloproteases (MMPs) 1, 2, 3, 8, 9, 13, and 14, and cysteine cathepsins (Cats) B, C, H, K, L, S, and V (Table 1). ADAM10 and ADAM17 activities were measured by release of fluorogenic peptides cleaved from pro-TNF (R&D Systems, Minneapolis, MN). ADAM10 was diluted to 0.05 μg/ml and ADAM17 to 0.1 μg/ml with 25 mM TRIS, 2.5 μM ZnCl2, 0.005% Brij35, pH 9.0 and incubated with 0 to 3 μg/ml RTD-1 dissolved in 0.01% HOAc. Assay was initiated by addition of substrate (10 μM final) and enzymatic activity measured at 37°C (ADAM10) or 22°C (ADAM17) every 30 seconds for 1 h in a SpectraMax M5e fluorometer (Molecular Devices, Sunnyvale, CA) with 320 nm excitation and 405 nm emission.
as §1

ADAM17 = ADAM17 (Homo sapiens, UniProt P78536); experiment: biochemical
Sequence of ADAM17 (P78536 215-824, species assumed): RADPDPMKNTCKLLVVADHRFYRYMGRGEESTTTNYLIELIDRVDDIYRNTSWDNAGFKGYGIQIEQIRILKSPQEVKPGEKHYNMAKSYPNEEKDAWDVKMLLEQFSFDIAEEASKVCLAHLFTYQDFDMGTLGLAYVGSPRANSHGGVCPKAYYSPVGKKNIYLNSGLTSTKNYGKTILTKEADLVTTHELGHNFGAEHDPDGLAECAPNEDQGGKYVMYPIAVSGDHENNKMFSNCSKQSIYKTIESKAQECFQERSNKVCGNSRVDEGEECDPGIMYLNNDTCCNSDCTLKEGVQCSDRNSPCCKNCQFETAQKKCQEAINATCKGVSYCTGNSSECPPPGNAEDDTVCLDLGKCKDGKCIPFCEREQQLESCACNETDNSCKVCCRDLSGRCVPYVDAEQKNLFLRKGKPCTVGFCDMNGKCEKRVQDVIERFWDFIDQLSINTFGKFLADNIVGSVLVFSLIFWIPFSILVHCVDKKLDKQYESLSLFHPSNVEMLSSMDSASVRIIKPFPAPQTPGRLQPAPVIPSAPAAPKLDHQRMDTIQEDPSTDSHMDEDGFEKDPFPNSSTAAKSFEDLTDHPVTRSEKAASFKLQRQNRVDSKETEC
Experimental: as §3, §1

[2] = system: DA rats with advanced PIA; experiment: Severe (advanced) pristane-induced arthritis (AS ≥ 12); format: in vivo, rat
Experimental: Female DA/OlaHsd (D blood group allele and Agouti, also known as Dark Agouti), rats were obtained from Harlan Laboratories (Indianapolis, IN). Animals were allowed to acclimate for 48–72 hours prior to experimental use. Animals were fed standard chow ad lib during a 12-hour day/night cycle. PIA was induced in 5–7 week old animals (90–100 gm) by intradermal injection of 250 μl pristane (Sigma) divided into 3–5 sites at the base of the tail. Animals were monitored daily and disease severity of each limb was scored 0–4 using the method of Brand et al.. The severity scores for all limbs of individual animals were totaled to give an individual’s arthritis severity score (AS) ranging from zero for normal animals to maximum disease score of sixteen. Disease severity was assessed by at least two scorers and the inter-rater agreement (kappa) value was 0.806 as determined using MedCalc Statistical Software version 14.8.1 (MedCalc Software, Ostend, Belgium). In three separate trials, treatment was also blinded to scorers. There was no statistical difference between blinded and unblinded scoring of any treatment cohort. Treatment with saline (vehicle), RTD-1, or anti-arthritic agents was randomized and initiated when an animal first presented with an AS of 3 or more. […]

[3] = no method or data given

Sequence of MMP-8 (P22894 101-467, species assumed): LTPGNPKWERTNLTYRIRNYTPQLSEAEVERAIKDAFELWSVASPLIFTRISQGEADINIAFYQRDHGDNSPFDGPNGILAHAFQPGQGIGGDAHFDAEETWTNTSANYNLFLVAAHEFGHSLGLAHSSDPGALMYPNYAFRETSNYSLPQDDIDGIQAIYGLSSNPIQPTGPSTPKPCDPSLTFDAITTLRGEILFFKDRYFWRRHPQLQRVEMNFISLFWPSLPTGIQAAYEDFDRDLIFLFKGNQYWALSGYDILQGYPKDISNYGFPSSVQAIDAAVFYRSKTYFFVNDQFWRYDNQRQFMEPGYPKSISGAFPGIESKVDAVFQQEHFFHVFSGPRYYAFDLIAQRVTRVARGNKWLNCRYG

Compound: CC[C@H](C)[C@@H]1NC(=O)[C@@H]2CSSC[C@H](NC(=O)[C@H](CCCNC(=N)N)NC(=O)[C@@H]3CSSC[C@H](NC1=O)C(=O)N[C@@H]([C@@H](C)O)C(=O)N[C@@H](CCCNC(=N)N)C(=O)NCC(=O)N[C@@H](Cc1ccccc1)C(=O)N3)C(=O)N[C@@H](CC(C)C)C(=O)N[C@H]1CSSC[C@H](NC(=O)[C@H](C(C)C)NC(=O)CNC(=O)[C@H](CCCNC(=N)N)NC(=O)[C@H](CCCNC(=N)N)NC1=O)C(=O)N[C@@H](CCCNC(=N)N)C(=O)N2 [RTD-1, rhesus θ-defensin 1] (cyclo(GFCRCLCRRGVCRCICTR); disulfide 3-16, 5-14, 7-12)
- IC50 (MMP-8): 12 ± 0.05 µM
- IC50 (MMP-14): 7.8 ± 0.3 µM
- IC50 (MMP-2): 19.6 ± 0.04 µM
- IC50 (MMP-3): > 50 µM
- IC50 (MMP-9): 11.1 ± 0.2 µM
- IC50 (Cathepsin V): 1800 ± 600 nM
- IC50 (Cathepsin S): > 50 µM
- IC50 (Cathepsin K; IC50, substrate z-FR-AMC 10 μM, enzyme 0.77 nM, RTD-1 0-50 μg/ml): 27 ± 20 nM
- IC50 (Cathepsin K; IC50 against cathepsin K, as quoted in running text from Table 1): ~27 nM
- IC50 (Cathepsin C): 3.7 ± 0.6 µM
- IC50 (Cathepsin L): 1400 ± 300 nM
- IC50 (Cathepsin H): > 50 µM
- IC50 (Cathepsin B): 1000 ± 100 nM
- average reduction of joint IL-1β vs vehicle (joint IL-1β): 44%
- tolerability [1]: well tolerated
- cell viability in proliferation assay (FLS): ≥ 98%
- IC50 (ADAM10): 450 ± 200 nM
- IC50 (ADAM17): 110 ± 40 nM
- resolution of clinical disease by day 15 ([2]; 5 mg/kg s.c. daily until AS = 0, AS ≥ 12 before treatment): complete resolution of clinical disease in all RTD-1 treated rats
- RTD-1 treated animals that relapsed with joint disease ([2]; after treatment stop and a disease-free interval): three of five
- stability in rat plasma [3]: highly stable
